Experimental data published in patent publication US20030092616A1, “STAT6 activation gene” (priority 2001, published 2003).

B1: 177 (nucleic acid, listed as Homo sapiens)
chain: AAACGAAACGGTAACCAGCCCTGGGAAGCCCGCAAGAGGCCTCAGCGGTGGCCGTCCGAGCGCCGAGAGGTGAGGGTGCCCCCGCCTCACCTGCAGAGGGGCCGTTCCGGGCTCGAACCCGGCACCTTCCGGAAAATGGCGGCTGCCAGGCCCAGCCTGGGCCGAGTCCTCCCAGGATCCTCTGTCCTGTTCCTGTGTGACATGCAGGAGAAGTTCCGCCACAACATCGCCTACTTCCCACAGATCGTCTCAGTGGCTGCCCGCATGCTCAAGGTGGCCCGGCTGCTTGAGGTGCCAGTCATGCTGACGGAGCAGTACCCACAAGGCCTGGGCCCCACGGTGCCCGAGCTGGGGACTGAGGGCCTTCGGCCGCTGGCCAAGACCTGCTTCAGCATGGTGCCTGCCCTGCAGCAGGAGCTGGACAGTCGGCCCCAGCTGTGCTCTGTGCTGCTCTGTGGCATTGAGGCACAGGCCTGCATCTTGAACACGACCCTGGACCTCCTAGACCGGGGGCTGCAGGTCCATGTGGTGGTGGACGCCTGCTCCTCACGCAGCCAGGTGGACCGGCTGGTGGCTCTGGCCCGCATGAGACAGAGTGGTGCCTTCCTCTCCACCAGCGAAGGGCTCATTCTGCAGCTTGTGGGCGATGCCGTCCACCCCCAGTTCAAGGAGATCCAGAAACTCATCAAGGAGCCCGCCCCAGACAGCGGACTGCTGGGCCTCTTCCAAGGCCAGCTGCTCCCGGAAATGCAAATGAGACTCCTGGAAACTGGGTGGGAATTGGCTGAGCCGAGATGGAGGCGGGGCTCGGCCCCGGGCCACTTCACGGGGCGGGAAGGGGAGGGGAAGAAGAGTCTCAGACTGTGGGACACGGACTCGCAGAATAAACATATATGTGGCTGTG
modifications: CDS (136)..(903)
B2: 455 (nucleic acid, listed as Homo sapiens)
chain: ATGGTGTCCTGGATGATCTCCAGAGCCGTGGTGCTGGTGTTTGGAATGCTTTATCCTGCATATTATTCATACAAAGCTGTGAAAACAAAAAACGTGAAGGAATATGTTCGATGGATGATGTACTGGATTGTTTTTGCTCTCTATACTGTGATTGAAACAGTAGCCGATCAAACAGTTGCTTGGTTTCCCCTGTACTATGAGCTGAAGATTGCTTTTGTCATATGGCTGCTTTCTCCCTATACCAAAGGAGCAAGTTTAATATATAGAAAATTCCTTCATCCACTTCTTTCTTCAAAGGAAAGGGAGATTGATGATTATATTGTACAAGCAAAGGAACGAGGCTATGAAACCATGGTAAACTTTGGACGGCAAGGTTTAAACCTTGCAGCTACTGCTGCTGTTACTGCAGCAGTAAAGAGCCAAGGAGCAATAACTGAACGTTTAAGAAGCTTCAGTATGCATGATTTAACAACTATCCAAGGTGATGAGCCTGTGGGACAAAGACCATACCAACCTCTACCAGAAGCAAAAAAGAAAAGTAAACCAGCCCCCAGTGAATCAGCAGGTTATGGAATTCCACTGAAAGACGGAGATGAGAAAACAGATGAAGAAGCAGAGGGGCCATATTCAGATAATGAGATGTTAACACACAAAGGGCTTCGAAGATCGCAAAGCATGAAATCTGTGAAAACCACCAAAGGCCGCAAAGAGGTGCGGTACGGGTCACTAAAATACAAAGTGAAGAAACGACCACAAGTGTATTTTTAGTCATCTACACGTCAAATATCCC
modifications: CDS (1)..(765)
B3: 159 (nucleic acid, listed as Homo sapiens)
chain: CCGGCGGGCTGGTGAGGAATGGAGCCGGTAGGCTGCTGCGGCGAGTGCCGCGGCTCCTCCGTAGACCCGCGGAGCACCTTCGTGTTGAGTAACCTGGCGGAGGTGGTGGAGCGTGTGCTCACCTTCCTGCCCGCCAAGGCGTTGCTGCGGGTGGCCTGCGTGTGCCGCTTATGGAGGGAGTGTGTGCGCAGAGTATTGCGGACCCATCGGAGCGTAACCTGGATCTCCGCAGGCCTGGCGGAGGCCGGCCACCTGGAGGGGCATTGCTTGGTTCGCGTGGTAGCAGAGGAGCTTGAGAATGTTCGCATCTTACCACATACAGTTCTTTACATGGCTGATTCAGAAACTTTCATTAGTCTGGAAGAGTGTCGTGGCCATAAGAGAGCAAGGAAAAGAACTAGTATGGAAACAGCACTTGCCCTTGAGAAGCTATTCCCCAAACAATGCCAAGTCCTTGGGATTGTGACCCCAGGAATTGTAGTGACTCCAATGGGATCAGGTAGCAATCGACCTCAGGAAATAGAAATTGGAGAATCTGGTTTTGCTTTATTATTCCCTCAAATTGAAGGAATAAAAATACAACCCTTTCATTTTATTAAGGATCCAAAGAATTTAACATTAGAAAGACATCAACTCACTGAAGTAGGTCTTTTAGATAACCCTGAACTTCGTGTGGTCCTTGTCTTTGGTTATAATTGCTGTAAGGTGGGAGCCAGTAATTATCTGCAGCAAGTAGTCAGCACTTTCAGTGATATGAATATCATCTTGGCTGGAGGCCAGGTGGACAACCTGTCATCACTGACTTCTGAAAAGAACCCTCTGGATATTGATGCCTCGGGTGTGGTTGGACTGTCATTTAGTGGACACCGAATCCAGAGTGCCACTGTGCTCCTCAACGAGGACGTCAGTGATGAGAAGACTGCTGAGGCTGCGATGCAGCGCCTCAAAGCGGCCAACATTCCAGAGCATAACACCATTGGCTTCATGTTTGCATGCGTTGGCAGGGGCTTTCAGTATTACAGAGCCAAGGGGAATGTTGAGGCTGATGCATTTAGAAAGTTTTTTCCTAGTGTTCCCTTATTCGGCTTCTTTGGAAATGGAGAAATTGGATGTGATCGGATAGTCACTGGGAACTTTATATTGAGGAAATGTAATGAGGTAAAAGATGATGATCTGTTTCATAGCTATACAACAATAATGGCACTCATACATCTGGGGTCATCTAAATAATAATTAAAGTGGCTTTCATAATATGT
modifications: CDS (19)..(1227)
B4: 481 (nucleic acid, listed as Homo sapiens)
chain: GAAAGAGCCGAGTGGGCTCGAGGCCGACGCGACCATCGTTTGTCGACGCCGCTGCCACCGCCTGCCTGAGAGAAGTCGTCGCGGCCGACCCCGTCGCCTCCGCCGGCTACCATGTCCGCCCAGGCGCAGATGCGGGCCCTGCTGGACCAGCTCATGGGCACGGCTCGGGACGGAGACGAAACCAGACAGAGGGTCAAGTTTACAGATGACCGTGTCTGCAAGAGTCACCTTCTGGACTGCTGCCCCCATGACATCCTGGCTGGGACGCGCATGGATTTAGGAGAATGTACCAAAATCCACGACTTGGCCCTCCGAGCAGATTATGAGATTGCAAGTAAAGAAAGAGACCTGTTTTTTGAATTAGATGCAATGGATCACTTGGAGTCCTTTATTGCTGAATGTGATCGGAGAACTGAGCTCGCCAAGAAGCGGCTGGCAGAAACACAGGAGGAAATCAGTGCGGAAGTTTCTGCAAAGGCAGAAAAAGTACATGAGTTAAATGAAGAAATAGGAAAACTCCTTGCTAAAGCCGAACAGCTAGGGGCTGAAGGTAATGTGGATGAATCCCAGAAGATTCTTATGGAAGTGGAAAAAGTTCGTGCGAAGAAAAAAGAAGCTGAGGAAGAATACAGAAATTCCATGCCTGCATCCAGTTTTCAGCAGCAAAAGCTGCGTGTCTGCGAGGTCTGTTCAGCCTACCTTGGTCTCCATGACAATGACCGTCGCCTGGCAGACCACTTCGGTGGCAAGTTACACTTGGGGTTCATTCAGATCCGAGAGAAGCTTGATCAGTTGAGGAAAACTGTCGCTGAAAAGCAGGAGAAGAGAAATCAGGATCGCTTGAGGAGGAGAGAGGAGAGGGAACGGGAGGAGCGTCTGAGCAGGAGGTCGGGATCAAGAACCAGAGATCGCAGGAGGTCACGCTCCCGGGATCGGCGTCGGAGGCGGTCAAGATCTACCTCCCGAGAGCGACGGAAATTGTCCCGGTCCCGGTCCCGAGATAGACATCGGCGCCACCGCAGCCGTTCCCGGAGCCACAGCCGGGGACATCGTCGGGCTTCCCGGGACCGAAGTGCGAAATACAAGTTCTCCAGAGAGCGGGCATCCAGAGAGGAGTCCTGGGAGAGCGGGCGGAGCGAGCGAGGGCCCCCGGACTGGAGGCTTGAGAGCTCCAACGGGAAGATGGCTTCACGGAGGTCAGAAGAGAAGGAGGCCGGCGAGATCTGAACCCGTCTCCCGGGTGCTGTAAATAGTCTGATAAACGTTCACACAGTCTAAAATTACCCTTTATATTTGCTGAATACAACTCATCTTTTGTAGTTTAAAATTTCTATTGTTTTGGAGCTAGCTGTGAGTTTCTAGAAGTGTACAGAGTTGCTCCTGTGTTCCCGGGTCATGTTGAGTAGGAATAAATAAATCTGATGCTGCCTCCTGAGGCTGCGGGGGGTTT
modifications: CDS (112)..(1224)

Key:
STAT6 [1] = assay: Screening compounds inhibiting promotion of STAT6 activity (STAT6 reporter activity); type: cell-based; details: 20 μM, mouse IL-4 1 ng/ml, 6 h; for inhibition of expression of the STAT6 reporter gene, control plasmid well: NIH3T3 cells with control plasmid pcDNA3.1 (+); for inhibition of expression of the STAT6 reporter gene (relative luciferase activity): NIH3T3 cells with plasmid for STAT6 activation-promoting protein of SEQ ID NO: 3, 17, 19, 218, 432 or 472, or nucleotide of SEQ ID NO: 64, FIGS. 1 to 7
Protocol: NIH3T3 cells were seeded on 10% FBS containing IMDM medium in a 96-well cell culture plate to a final cell density of 1×10^4 cells/100 μl/well, and cultured for 24 hours at 37° C. in the presence of 5% CO2. Then, 30 ng of the plasmid containing the nucleotide encoding the STAT6 activation-promoting protein of SEQ ID NO: 3, 17, 19, 218, 432 or 472, or the nucleotide of SEQ ID NO: 64, and 100 ng of the luciferase reporter plasmid having the STAT6 response sequence were cotransfected into the cells in a well using FuGENE 6. […] After 30 min of culture at 37° C., followed by 6 hours of culture with addition of mouse IL-4 to a final concentration of 1 ng/ml, the reporter activity was measured using PIKKA GENE LT2.0.

STAT6 [2] = assay: Screening of full-length cDNA clones for promotion of STAT6 activation (luciferase reporter N4×8-luc); type: cell-based; details: NIH3T3 cells cotransfected with N4×8-luc reporter and cDNA plasmid; 48 h culture, then mouse IL-4 0.5 ng/ml for 6 h
Method in brief: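 Promotion of STAT6 activation scored as increase in luciferase signal over null-vector control cells. NIH3T3 cells carried N4×8-luc (100 ng) plus cDNA clone; after 48 h culture, 6 h stimulation with 0.5 ng/ml (final) mouse IL-4 preceded reading.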

Molecule | inhibition of expression of the STAT6 reporter gene, control plasmid well (STAT6 [1]) | inhibition of expression of the STAT6 reporter gene (relative luciferase activity) (STAT6 [1]) | Activity = (luciferase activity of the gene of each SEQ ID NO:)/(luciferase activity of pME18S-FL3) (STAT6 [2])
N#CC(C#N)=Cc1ccc(O)c(O)c1 [AG18] | no expression was inhibited at all | inhibited | 
N#C/C(=C/c1ccc(O)c(O)c1)C(=O)NCc1ccccc1 [AG490] | no expression was inhibited at all | inhibited | 
B1 |  |  | 22.6
B2 |  |  | 3.3
B3 |  |  | 19.1
B4 |  |  | 6.4
